# From PubChem BioAssay (NCI)
#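 Values below derive from 48-hour exposures of cells grown in 96-well plates, with endpoints linearly interpolated between the two concentrations bracketing the appropriate inhibition level. Here, GI50 denotes the concentration required for 50% inhibition of growth. TGI: total growth inhibition.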
# Assays:
# Test in all cases: DTP human tumour cell line panel, 48 h
# 786-0 renal = system: 786-0 renal
# A498 renal = system: A498 renal
# A549 NSCLC = system: A549 NSCLC
# ACHN renal = system: ACHN renal
# BT-549 breast = system: BT-549 breast
# CAKI-1 renal = system: CAKI-1 renal
# CCRF-CEM leukemia = system: CCRF-CEM leukemia
# COLO 205 colon = system: COLO 205 colon
# DU-145 prostate = system: DU-145 prostate
# EKVX NSCLC = system: EKVX NSCLC
# HCC-2998 colon = system: HCC-2998 colon
# HCT-15 colon = system: HCT-15 colon
# HL-60(TB) leukemia = system: HL-60(TB) leukemia
# HOP-62 NSCLC = system: HOP-62 NSCLC
# HOP-92 NSCLC = system: HOP-92 NSCLC
# HS 578T breast = system: HS 578T breast
# HT29 colon = system: HT29 colon
# IGROV1 ovarian = system: IGROV1 ovarian
# K-562 leukemia = system: K-562 leukemia
# KM12 colon = system: KM12 colon
# M14 melanoma = system: M14 melanoma
# MALME-3M melanoma = system: MALME-3M melanoma
# MCF7 breast = system: MCF7 breast
# MDA-MB-231 breast = system: MDA-MB-231 breast
# MDA-MB-435 = system: MDA-MB-435
# MOLT-4 leukemia = system: MOLT-4 leukemia
# NCI-H226 lung = system: NCI-H226 lung
# NCI-H23 lung = system: NCI-H23 lung
# NCI-H460 lung = system: NCI-H460 lung
# NCI-H522 lung = system: NCI-H522 lung
# NCI/ADR-RES ovarian = system: NCI/ADR-RES ovarian
# OVCAR-4 ovarian = system: OVCAR-4 ovarian
# OVCAR-5 ovarian = system: OVCAR-5 ovarian
# OVCAR-8 ovarian = system: OVCAR-8 ovarian
# PC-3 prostate = system: PC-3 prostate
# RPMI-8226 leukemia = system: RPMI-8226 leukemia
# RXF 393 renal = system: RXF 393 renal
# SF-268 CNS = system: SF-268 CNS
# SF-295 CNS = system: SF-295 CNS
# SF-539 CNS = system: SF-539 CNS
# SK-MEL-2 melanoma = system: SK-MEL-2 melanoma
# SK-MEL-28 melanoma = system: SK-MEL-28 melanoma
# SK-MEL-5 melanoma = system: SK-MEL-5 melanoma
# SK-OV-3 ovarian = system: SK-OV-3 ovarian
# SN12C renal = system: SN12C renal
# SNB-19 CNS = system: SNB-19 CNS
# SNB-75 CNS = system: SNB-75 CNS
# SW-620 colon = system: SW-620 colon
# T-47D breast = system: T-47D breast
# TK-10 renal = system: TK-10 renal
# UACC-257 melanoma = system: UACC-257 melanoma
# UACC-62 melanoma = system: UACC-62 melanoma
# UO-31 renal = system: UO-31 renal
structure (smiles),measurement,setting,value
NCCN1CCN(c2nc(-c3ccccc3)nc3nc(-c4ccccc4)oc23)CC1,GI50,786-0 renal,1770 nM
same,TGI,786-0 renal,3.64 µM
same,GI50,A498 renal,1690 nM
same,TGI,A498 renal,3.31 µM
same,GI50,A549 NSCLC,1850 nM
same,TGI,A549 NSCLC,3.91 µM
same,GI50,ACHN renal,1810 nM
same,TGI,ACHN renal,3.29 µM
same,GI50,BT-549 breast,1680 nM
same,TGI,BT-549 breast,3.31 µM
same,GI50,CAKI-1 renal,1640 nM
same,TGI,CAKI-1 renal,3.17 µM
same,GI50,CCRF-CEM leukemia,919 nM
same,TGI,CCRF-CEM leukemia,3.29 µM
same,GI50,COLO 205 colon,1930 nM
same,TGI,COLO 205 colon,3.92 µM
same,GI50,DU-145 prostate,1920 nM
same,TGI,DU-145 prostate,3.45 µM
same,GI50,EKVX NSCLC,1670 nM
same,TGI,EKVX NSCLC,3.36 µM
same,GI50,HCC-2998 colon,1630 nM
same,TGI,HCC-2998 colon,3.06 µM
same,GI50,HCT-15 colon,1490 nM
same,TGI,HCT-15 colon,2970 nM
same,GI50,HL-60(TB) leukemia,1860 nM
same,TGI,HL-60(TB) leukemia,4.48 µM
same,GI50,HOP-62 NSCLC,2030 nM
same,TGI,HOP-62 NSCLC,4.55 µM
same,GI50,HOP-92 NSCLC,1350 nM
same,TGI,HOP-92 NSCLC,2870 nM
same,GI50,HS 578T breast,2220 nM
same,TGI,HS 578T breast,5.06 µM
same,GI50,HT29 colon,1970 nM
same,TGI,HT29 colon,4 µM
same,GI50,IGROV1 ovarian,1800 nM
same,TGI,IGROV1 ovarian,3.49 µM
same,GI50,K-562 leukemia,287 nM
same,TGI,K-562 leukemia,1010 nM
same,GI50,KM12 colon,1860 nM
same,TGI,KM12 colon,3.47 µM
same,GI50,M14 melanoma,2040 nM
same,TGI,M14 melanoma,3.72 µM
same,GI50,MALME-3M melanoma,1750 nM
same,TGI,MALME-3M melanoma,3.39 µM
same,GI50,MCF7 breast,1310 nM
same,TGI,MCF7 breast,2860 nM
same,GI50,MDA-MB-231 breast,1830 nM
same,TGI,MDA-MB-231 breast,3.56 µM
same,GI50,MDA-MB-435,1820 nM
same,TGI,MDA-MB-435,3.32 µM
same,GI50,MOLT-4 leukemia,2080 nM
same,TGI,MOLT-4 leukemia,4.62 µM
same,GI50,NCI-H226 lung,1970 nM
same,TGI,NCI-H226 lung,4.13 µM
same,GI50,NCI-H23 lung,1690 nM
same,TGI,NCI-H23 lung,3.21 µM
same,GI50,NCI-H460 lung,1940 nM
same,TGI,NCI-H460 lung,3.69 µM
same,GI50,NCI-H522 lung,2160 nM
same,TGI,NCI-H522 lung,5.05 µM
same,GI50,NCI/ADR-RES ovarian,1900 nM
same,TGI,NCI/ADR-RES ovarian,3.97 µM
same,GI50,OVCAR-4 ovarian,2150 nM
same,TGI,OVCAR-4 ovarian,4.42 µM
same,GI50,OVCAR-5 ovarian,1770 nM
same,TGI,OVCAR-5 ovarian,3.26 µM
same,GI50,OVCAR-8 ovarian,1980 nM
same,TGI,OVCAR-8 ovarian,4.46 µM
same,GI50,PC-3 prostate,1590 nM
same,TGI,PC-3 prostate,3.06 µM
same,GI50,RPMI-8226 leukemia,1880 nM
same,TGI,RPMI-8226 leukemia,4.62 µM
same,GI50,RXF 393 renal,1630 nM
same,TGI,RXF 393 renal,3.41 µM
same,GI50,SF-268 CNS,1850 nM
same,TGI,SF-268 CNS,3.96 µM
same,GI50,SF-295 CNS,1890 nM
same,TGI,SF-295 CNS,3.6 µM
same,GI50,SF-539 CNS,1790 nM
same,TGI,SF-539 CNS,3.25 µM
same,GI50,SK-MEL-2 melanoma,22.3 µM
same,TGI,SK-MEL-2 melanoma,47.7 µM
same,GI50,SK-MEL-28 melanoma,1790 nM
same,TGI,SK-MEL-28 melanoma,3.35 µM
same,GI50,SK-MEL-5 melanoma,1740 nM
same,TGI,SK-MEL-5 melanoma,3.18 µM
same,GI50,SK-OV-3 ovarian,1910 nM
same,TGI,SK-OV-3 ovarian,3.69 µM
same,GI50,SN12C renal,1800 nM
same,TGI,SN12C renal,3.5 µM
same,GI50,SNB-19 CNS,1820 nM
same,TGI,SNB-19 CNS,3.46 µM
same,GI50,SNB-75 CNS,1300 nM
same,TGI,SNB-75 CNS,2600 nM
same,GI50,SW-620 colon,1710 nM
same,TGI,SW-620 colon,3.3 µM
same,GI50,T-47D breast,2050 nM
same,TGI,T-47D breast,4.66 µM
same,GI50,TK-10 renal,1650 nM
same,TGI,TK-10 renal,3.39 µM
same,GI50,UACC-257 melanoma,3.34 µM
same,TGI,UACC-257 melanoma,13.4 µM
same,GI50,UACC-62 melanoma,1850 nM
same,TGI,UACC-62 melanoma,3.47 µM
same,GI50,UO-31 renal,1460 nM
same,TGI,UO-31 renal,3.01 µM
